Biological target: T1, hCXCR2-CHO overexpressing membranes (Homo sapiens, UniProt P25025)
T1 construct: purchased Biosignal; host or cells: CHO cells (membranes)
T1 sequence (P25025 1-360): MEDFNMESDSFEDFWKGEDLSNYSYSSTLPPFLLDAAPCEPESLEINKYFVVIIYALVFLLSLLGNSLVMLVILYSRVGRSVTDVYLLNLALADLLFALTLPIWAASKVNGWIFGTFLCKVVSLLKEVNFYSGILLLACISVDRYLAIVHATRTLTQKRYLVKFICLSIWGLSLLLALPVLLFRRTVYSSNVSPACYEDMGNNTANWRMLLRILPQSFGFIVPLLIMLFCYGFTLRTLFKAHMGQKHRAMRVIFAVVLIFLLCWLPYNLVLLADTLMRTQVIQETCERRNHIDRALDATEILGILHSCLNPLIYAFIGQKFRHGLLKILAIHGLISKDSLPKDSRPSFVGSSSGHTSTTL
Assay: CXCR2 SPA Assay
Format: binding
Conditions: [125I]-IL-8 0.1 nM
Procedure: For each well of a 96 well plate, a reaction mixture of 4 μg hCXCR2-CHO overexpressing membranes (Biosignal) and 200 μg/well WGA-SPA beads (Amersham) in 100 μl was prepared in CXCR2 assay buffer (25 mM HEPES, pH 7.4, 2 mM CaCl2, 1 mM MgCl2). A 0.4 nM stock of ligand, [125I]-IL-8 (NEN), was prepared in the CXCR2 assay buffer. 20× stock solutions of test compounds were prepared in DMSO (Sigma). A 6× stock solution of GRO-α (R&D) was prepared in CXCR2 assay buffer. The above solutions were added to a 96-well assay plate (PerkinElmer or Corning) as follows: 10 μl test compound or DMSO, 40 ul CXCR2 assay buffer or GRO-α stock, 100 μl of reaction mixture, 50 μl of ligand stock (Final [Ligand]=0.1 nM). When 40× stock solutions of test compounds in DMSO were prepared, then the above protocol was used except instead 5 μl test compound or DMSO and 45 μl CXCR2 assay buffer were used. The assay plates were shaken for 5 minutes on a plate shaker, then incubated for 2-8 hours before cpm/well were determined in Microbeta Trilux counter (PerkinElmer). % Inhibition of total binding minus non-specific binding (250 nM Gro-α or 50 μM antagonist) was determined and IC50 values calculated.

CC[C@@H](Nc1c(Nc2cccc(C(=O)N(C)C)c2O)c(=O)c1=O)c1cc(C(C)C)co1 [Example 360.106]
Ki: 0.8 nM

Source: US7947720B2, “3,4-di-substituted cyclobutene-1,2-diones as CXC-chemokine receptor ligands” (Schering Corporation, priority 2001, dated 2011)
